Measured values reported in the supplement of paper PMC10307832.

Legend:
Experiment in all cases: relative viability (nuclei count vs DMSO), 5 days (fraction); higher = more cells survive
[1] = compound: CC1=C(C(=NN1)C)CC2=C(C3=C(S2)N(C(=O)N(C3=O)C)CC(C)C)C(=O)N4C[C@@H](CO4)O + CCNC(=O)c1noc(-c2cc(C(C)C)c(O)cc2O)c1-c1ccc(CN2CCOCC2)cc1 [Luminespib] (partner 0.01 µM)
Outline: (§1)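 Values are medians from duplicate plates. Each reflects relative viability, defined as the nuclei count of treated wells over that of vehicle wells. Lung cancer cell lines in 1536-well plates were pin-tool dosed one day after seeding with one drug alone or with a fixed anchor-drug dose plus five library-drug doses (not always all listed) in √10 steps, then fixed, stained and imaged at 4× after 5 days.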

IDH-C35 + AZD7762 = compound: Cc1ccccc1C(C(=O)NC1CCCCC1)N(C(=O)Cn1ccnc1C)c1cccc(F)c1 [IDH-C35] + NC(=O)Nc1cc(-c2cccc(F)c2)sc1C(=O)N[C@H]1CCCNC1 [AZD7762] (partner 0.2 µM)
Outline: as §1

[2] = compound: CC1=C(C(=NN1)C)CC2=C(C3=C(S2)N(C(=O)N(C3=O)C)CC(C)C)C(=O)N4C[C@@H](CO4)O + O=C(c1cc(Cc2n[nH]c(=O)c3ccccc23)ccc1F)N1CCN(C(=O)C2CC2)CC1 [Olaparib] (partner 8 µM)
Outline: as §1

IDH-C35 + Pictilisib = compound: Cc1ccccc1C(C(=O)NC1CCCCC1)N(C(=O)Cn1ccnc1C)c1cccc(F)c1 [IDH-C35] + CS(=O)(=O)N1CCN(Cc2cc3nc(-c4cccc5[nH]ncc45)nc(N4CCOCC4)c3s2)CC1 [Pictilisib] (partner 1 µM)
Outline: as §1

Row | Cell Line | relative viability ([1]; first compound 0.0025 µM) | relative viability ([1]; first compound 0.007906 µM) | relative viability ([1]; first compound 0.025 µM) | relative viability ([1]; first compound 0.07906 µM) | relative viability ([1]; first compound 0.25 µM) | relative viability (IDH-C35 + AZD7762; first compound 0.08 µM) | relative viability (IDH-C35 + AZD7762; first compound 0.253 µM) | relative viability (IDH-C35 + AZD7762; first compound 0.8 µM) | relative viability (IDH-C35 + AZD7762; first compound 2.53 µM) | relative viability (IDH-C35 + AZD7762; first compound 8 µM) | relative viability ([2]; first compound 0.0025 µM) | relative viability ([2]; first compound 0.007906 µM) | relative viability ([2]; first compound 0.025 µM) | relative viability ([2]; first compound 0.07906 µM) | relative viability ([2]; first compound 0.25 µM) | relative viability (IDH-C35 + Pictilisib; first compound 0.08 µM) | relative viability (IDH-C35 + Pictilisib; first compound 0.253 µM) | relative viability (IDH-C35 + Pictilisib; first compound 0.8 µM) | relative viability (IDH-C35 + Pictilisib; first compound 2.53 µM) | relative viability (IDH-C35 + Pictilisib; first compound 8 µM)
1 | HCC-827 | 0.748 | 0.445 | 0.56 | 0.513 | 0.482 | 0.218 | 0.266 | 0.221 | 0.206 | 0.228 | 0.641 | 0.629 | 0.58 | 0.612 | 0.612 | 0.966 | 0.921 | 1.02 | 1.13 | 1.17
2 | LK-2 | 0.219 | 0.148 | 0.223 | 0.202 | 0.186 | 0.422 | 0.542 | 0.37 | 0.444 | 0.336 | 0.743 | 0.608 | 0.504 | 0.556 | 0.6 | 0.584 | 0.501 | 0.456 | 0.496 | 0.565
3 | BEN | 0.235 | 0.383 | 0.242 | 0.335 | 0.325 | 0.572 | 0.772 | 0.679 | 0.586 | 0.683 | 0.868 | 0.709 | 0.684 | 0.806 | 0.712 | 0.545 | 0.568 | 0.54 | 0.54 | 0.505
4 | NCI-H23 | 0.242 |  |  | 0.23 | 0.219 | 0.239 | 0.253 | 0.229 | 0.359 | 0.272 | 0.39 | 0.322 | 0.311 | 0.339 | 0.376 | 0.473 | 0.494 | 0.526 | 0.397 | 0.456
5 | NCI-H1395 | 0.768 | 0.785 | 0.607 | 0.461 | 0.631 | 0.396 | 0.408 | 0.407 | 0.446 | 0.403 | 0.552 | 0.408 | 0.38 | 0.342 | 0.403 | 0.601 | 0.555 | 0.681 | 0.603 | 0.697
6 | 201T | 1.04 | 1.1 | 1.05 | 1.04 | 1.05 | 0.62 | 0.638 | 0.615 | 0.514 | 0.603 | 0.852 | 0.815 | 0.828 | 0.845 | 0.853 | 0.651 | 0.731 | 0.634 | 0.661 | 0.676
7 | NCI-H2170 | 0.607 | 0.79 | 0.753 | 0.725 | 0.793 | 1.04 | 0.919 | 0.899 | 0.786 | 0.757 | 0.582 | 0.636 | 0.676 | 0.597 | 0.666 | 0.33 | 0.378 | 0.332 | 0.342 | 0.336
8 | NCI-H460 | 0.0312 | 0.0506 | 0.037 | 0.0359 | 0.028 | 0.623 | 0.663 | 0.609 | 0.586 | 0.578 | 0.419 | 0.516 | 0.418 | 0.355 | 0.459 | 0.43 | 0.438 | 0.325 | 0.326 | 0.297
9 | HCC-15 | 0.378 | 0.518 | 0.236 | 0.43 | 0.337 | 1.33 | 1.1 | 1.08 |  | 1.35 | 0.721 | 0.707 | 0.69 | 0.697 | 0.766 | 0.719 | 0.727 | 0.682 | 0.618 | 0.645
10 | ABC-1 |  | 0.606 |  | 0.349 | 0.531 | 0.779 | 0.874 | 0.739 | 0.744 | 1.01 | 0.487 | 0.519 |  | 0.485 | 0.517 | 0.675 | 0.667 | 0.617 | 0.984 | 0.908
11 | LCLC-103H | 0.966 | 0.885 | 0.976 | 0.939 | 1.1 | 0.831 | 0.792 | 0.81 | 0.779 | 0.829 | 0.797 | 0.735 | 0.762 | 0.753 | 0.773 | 0.7 | 0.62 | 0.536 | 0.715 | 0.603
12 | NCI-H441 | 0.413 | 0.405 | 0.326 | 0.365 | 0.269 | 1.39 | 1.31 | 1.09 | 1.21 | 0.98 | 0.648 | 0.529 | 0.521 | 0.478 | 0.593 | 0.588 | 0.562 | 0.456 | 0.506 | 0.446
13 | EPLC-272H | 0.738 | 0.197 | 0.235 | 0.498 | 0.417 | 0.387 | 0.266 | 0.215 |  | 0.305 | 0.69 | 0.778 | 0.771 | 0.844 | 1.09 | 0.369 | 0.338 | 0.283 |  | 0.329
